# Measurements from a melting point compilation (Tetko et al.).
row,melting point [°C],SMILES
1,133,Cc1ccc(C)c2c(=O)c(=O)c12
2,59 to 60,O=C=Nc1ccc(Cl)cc1Cl
3,75,O=C(O)C(F)(F)c1ccccc1
4,239,COC(=O)C(C(=O)OC)=C1SC2=C(C(=O)c3ccccc3C2=O)N1c1ccccc1
5,62 to 64,Nc1ccc(Br)cc1N
6,280,CN1CCN(C(=O)OC2C3=C(SCCS3)C(=O)N2c2ccc3ccc(Cl)nc3n2)CC1 (stereo unspecified)
7,88.7 to 89.7,COC(=O)C1(C(=O)OC)Cc2cccc(OC)c2C(=O)O1
8,240,O=c1[nH]nc(-c2ccccc2)c2ccccc12
9,19 to 21,O=S(=O)(n1ccnc1)C(F)(F)F
10,205 to 207,CC1(c2ccccc2)CC(C(=NNC(N)=S)c2cc3ccccc3o2)C1 (stereo unspecified)
11,59,O=S(=O)(Cl)c1cccc(S(=O)(=O)Cl)c1
12,84,O=[N+]([O-])c1cccc(SSc2cccc([N+](=O)[O-])c2)c1
13,204 to 207,O=C(O)c1cc(O)ccc1O
14,-30.1,CCCCCCCCN(C)CCCCCCCC
15,91,CN(N)c1ccc(Cl)cc1[N+](=O)[O-]
16,118,COc1ccc(S(=O)(=O)c2coc(S(N)(=O)=O)c2)cc1
17,130,COCCOc1ccccc1S(=O)(=O)NC(=O)Nc1nc(OC)nc(OC)n1
18,81,Nc1ccc(-n2cccc2)cc1
19,115,COc1ccc2cnc(C)cc2c1

row,melting point [°C],SMILES
1,183 to 185,COc1cc2c(cc1OC)C(c1ccc([N+](=O)[O-])cc1)N(C(C)=O)CC2 (stereo unspecified)
2,94 to 95,O=C1CCSc2ccc(F)cc21
3,280,C#CC1(O)CCC2C3CCc4cc(O)ccc4C3C(OC)CC21C (stereo unspecified)
4,60,c1ccc(COc2cccc3[nH]ccc23)cc1
5,215,NC(=O)NC(=O)Cc1ccccc1
6,86 to 91,C[C@@H]1CNCCN1
7,78,CC(=O)c1ccc(C#N)s1
8,267,C/C(=N\N=C1C(=O)Nc2ccccc21)c1c(O)c2ccccc2n(-c2ccccc2)c1=O
9,100,CC(=O)C(=O)Nc1ccccc1
10,100,CCOc1ccc(Cc2nccc3cc(OCC)c(OCC)cc23)cc1OCC
11,72 to 74,Cc1nn(C)c(C)c1I
12,300,O=C1C(=C2Nc3ccccc3C2=O)Nc2ccccc21
13,231,CCCCNc1cc(C(=O)O)cc(S(N)(=O)=O)c1Oc1ccccc1
14,69,Cc1c(-c2ccccc2)n(C)c2ccccc12
15,-45,C=CC(=O)OCCCCCC
16,91,COC(=O)C1CC(c2ccccc2)c2ccccc21 (stereo unspecified)
17,178,COc1ccc(N/N=C(\C#N)c2nc(C)c(/N=N/c3ccccc3)s2)cc1
18,179 to 182,O=C(O)c1cc(F)ccc1O
19,152,COc1c(OC)c(OC(C)=O)c2c(C#N)cccc2c1OC(C)=O

row,melting point [°C],SMILES
1,133,CCOc1ccccc1C(N)=O
2,154 to 155,NC(=S)CCn1cccc(C(F)(F)F)c1=O
3,184,COc1ccc(/C=C2\CCCC3=C2NC(=S)NC3c2ccc(OC)cc2)cc1 (stereo unspecified)
4,140,CN(C)c1ccc(C=CC=O)cc1
5,-78,CCOC(=O)C(F)(F)F
6,-64,C=C(C)CCCCCCC
7,50 to 53,C[Si](C)(C)CCS(=O)(=O)c1ccccc1
8,41,CC(=O)Oc1ccc(OC(C)=O)c(C)c1
9,4,O=C(O)C1CCCC1
10,185 to 186,COc1ccccc1NC(=S)c1cc(C(C)(C)C)c(O)c(C(C)(C)C)c1
11,210 to 213,O=[N+]([O-])c1cc2c3ccccc3ccc2c2ccccc12
12,300,O=C1c2ccc(O)cc2C(=O)c2ccc(O)cc21
13,187,O=C(/C=C/c1ccccc1)NNc1ccccc1
14,166,COC(=O)C1(C(=O)OC)Cc2c(C)c(C)c(C)c(C)c2C(=O)O1
15,52,Oc1ccccc1Cc1ccccc1
16,-13,C(COCCOCC1CO1)OCCOCC1CO1 (stereo unspecified)
17,51 to 52,CC1(C)C2CCC1(C)C(O)/C2=C\CC(=O)O (stereo unspecified)
18,230,CCOC(=O)c1nn(-c2ccc(C)cc2)c(C)c1C(=O)c1noc(-c2ccc(Cl)cc2)c1S(=O)(=O)c1ccccc1
19,108,COC(=O)C1(S(=O)(=O)c2ccccc2)CCC1

# The remaining lines, values behind:
row,SMILES,melting point [°C]
1,CC(C)(C)c1cc(C(C)(C)C)c(N=O)c(C(C)(C)C)c1,170 to 173
2,CC12CCC(C(C(Br)N(O)c3ccccc3)C1=O)C2(C)C (stereo unspecified),121
3,Brc1ccc2nonc2c1,72 to 74
4,O=C(O)c1ccccc1Nc1cccc(C(F)(F)F)c1,134
5,Clc1ccnc2ccccc12,34.5
6,Cc1cccc(C(C)(C)C)c1O,31
7,CCOC(=O)c1c[nH]c(=S)nc1N,256 to 258
8,CC(=O)NC1=NC(=O)C(=Cc2coc3ccc(Br)cc3c2=O)N1C,259 to 261
9,CC(=O)ON(/C=C1\C(=O)C2(C)CCC1C2(C)C)c1ccccc1 (stereo unspecified),162 to 164
10,O=C(O)c1ccc(Cn2cncn2)cc1,227 to 229
11,CC(c1ccccc1)C(NC(=O)OC(C)(C)C)C(=O)O (stereo unspecified),100 to 105
12,Oc1nc(S)c2nc[nH]c2n1,300
13,Cc1ccc(C=NC2=NC(C(F)(F)F)N=N2)cc1 (stereo unspecified),208
14,CC(C)c1cc(C(C)C)c(S(=O)(=O)n2cncn2)c(C(C)C)c1,111
15,Cc1nc2ccc(-c3ccccc3)cc2s1,90 to 95
16,COc1c(C)c(C)c(OC)c2c1CC2=O,109
17,CC(C)(C)OC(=O)NC(Cc1cccc(F)c1)C(=O)O (stereo unspecified),78
18,CCOC(=O)C12C(c3ccccc3OP1(=O)OCC)C1(C(=O)OCC)C2c2ccccc2OP1(=O)OCC (stereo unspecified),249 to 251
19,C1COCCOCCOCCN1,53 to 55
20,Cc1c(C)c(C)c(C=O)c(C)c1C,146 to 148
21,CC12CCC(C(COC=O)C1=O)C2(C)C (stereo unspecified),74
22,CCNc1nc(NC(C)C(C)C)nc(SC)n1 (stereo unspecified),65
23,CC(C)=CCCC(C)=CC=CC(C)=CC=CC(C)=CC=CC=C(C)C=CC=C(C)C=CC1C(C)=CCCC1(C)C (stereo unspecified),140

row,SMILES,melting point [°C]
1,ClC1Cc2cc3c(cc21)OCO3 (stereo unspecified),55
2,O=C(O)CF,35.2
3,OCC1OC1c1ccccc1 (stereo unspecified),51 to 53
4,Cc1ccc(Sc2ncccc2C(=O)Cl)cc1,102 to 104
5,C=C1CC2C3C=C(C)C4=CC(=O)CCC4(C)C3CCC2(C)C1(OC(C)=O)C(C)=O (stereo unspecified),224
6,CC12CCC(C(O)=C(Br)C1=O)C2(C)C (stereo unspecified),188
7,C(=N\c1ccc(-c2ccc(/N=N/c3ccccc3)cc2)cc1)/c1ccccc1,226
8,OCC1(c2ccc(Cl)cc2)CC1,50 to 54
9,COc1ccc(-c2ccc(C(=O)O)o2)cc1,176 to 178
10,O=[N+]([O-])c1ccccc1S(=O)(=O)Cl,67
11,COCC(CCC(=O)OC)N1CC=CC1 (stereo unspecified),144 to 146
12,C[C@H](C[C@H](I)C(C)(C)C)S(=O)(=O)c1ccccc1,74
13,CN(C)CCc1c[nH]c2cccc(OP(=O)(O)O)c12,224
14,CCN(CC)CC(O)CO (stereo unspecified),-30
15,N#CCCO,-46
16,O=C(NC(Cc1ccsc1)C(=O)O)OCC1c2ccccc2-c2ccccc21 (stereo unspecified),188
17,COc1ccc2c3c1OC1C(O)CCC4C(C2)N(C)CCC341 (stereo unspecified),200
18,C=Cc1ccc(C=C)cc1,31
19,O=C(Nc1cc(Cl)cc(Cl)c1O)c1c(O)c(Cl)cc(Cl)c1Cl,210
20,NNC(=O)c1ccc([N+](=O)[O-])cc1,210 to 214
21,CC(=O)Nc1ccc(C=Cc2nc3cc([N+](=O)[O-])ccc3n2-c2ccc(C)cc2)cc1,249 to 250
22,N#Cc1ccc(Oc2ccccc2)cc1,45 to 48
23,Cc1cccc2ncccc12,19

row,SMILES,melting point [°C]
1,O=CC=CC=Cc1ccccc1,42.5
2,Nc1c(Cl)cccc1C(=O)O,190
3,CCOC(=O)C(C#N)=C(N)c1cc2cc(Br)cc(OC)c2oc1=O,274 to 276
4,CC(=O)Oc1c(-c2ccccc2)[nH]c2cc(N)c(/C=C/c3ccccc3)cc12,266
5,OC1C(O)C(O)C(O)C(O)C1O (stereo unspecified),230
6,Cc1cncc(N2CCC(C(=O)Oc3c(F)c(F)c(F)c(F)c3F)CC2)n1,94 to 95
7,CC(=O)OC1(C(C)=O)CCC2(C)C(CCC3C4CCCC4(C)CCC32)C1 (stereo unspecified),164 to 166
8,CN(C)c1ccc(N=C=S)cc1,69 to 71
9,COc1ccc(C2NCCc3sccc32)cc1 (stereo unspecified),69 to 71
10,COc1cc(O)c(C(=O)c2ccccc2)cc1S(=O)(=O)O,170
11,CCN(CC)C(=O)C1C=C2c3cccc4[nH]c(Br)c(c34)CC2N(C)C1 (stereo unspecified),124
12,SC1CCCCC1,-30
13,CSc1nsc(SC)c1C(N)=O,214 to 216
14,c1ccc(Oc2nc(Oc3ccccc3)nc(Oc3ccccc3)n2)cc1,234
15,CC(=O)c1sc2nc(-c3cccs3)cc(C(F)(F)F)c2c1N,171 to 172
16,Clc1cc(-c2ccccn2)nc(-c2ccccn2)c1,150
17,O=C(O)c1ccc(=O)[nH]c1,314 to 316
18,ClC[Si]12OCCN(CCO1)CCO2,221
19,CC(C)(Oc1ccc(Cl)cc1)C(=O)OCCCOC(=O)C(C)(C)Oc1ccc(Cl)cc1,52
20,O=C(CBr)c1nccs1,54 to 55
21,O=C(O)c1cc(I)cc(I)c1I,223 to 228
22,O=[N+]([O-])c1cccc(Cl)c1O,70
23,O=C(O)c1ccc(-c2ccc(O)cc2)cc1,316
